Experiments:
[1] = test system: cSSSI due to gram-positive pathogens; experiment: Phase 2 randomized double-blind study of three oritavancin dose regimens in cSSSI: clinical response at test-of-cure; type: in vivo, human; conditions: for Cure (cure and improvement), % of patients: TOC
Procedure: A phase 2, multi-center, randomized, double-blind, parallel, active-comparator study in which three dose regimens of oritavancin were explored as a treatment for cSSSI due to gram-positive pathogens was conducted using: a daily dose (200 mg) administered for three to seven days, a single dose (1200 mg), and an infrequent dose (800 mg dose with option for an additional 400 mg on Day 5).
Patients were randomized through an interactive voice response system in a 1:1:1 ratio to receive either 1) oritavancin […] daily dose: 200 mg IV daily for 3 to 7 days as determined by the investigator based on clinical criteria, 2) oritavancin single dose: 1200 mg oritavancin IV on Day 1, or; 3) oritavancin infrequent dose: 800 mg IV on Day 1 with optional 400 mg IV on Day 5 as determined by investigator based on clinical criteria. During randomization patients were stratified by disease categories of wound infection, major abscess, and cellulitis. Placebo IV (5% dextrose in water) was given to maintain the blind.
Analyses were performed on four patient populations: intent-to-treat (ITT), modified intent-to-treat (MITT), clinically evaluable (CE) and microbiologically evaluable (ME). The ITT population included patients who were randomized to treatment and received any amount of study medication. Two patients who were potentially unblinded were excluded from the ITT population for all efficacy analyses. The MITT population included all ITT patients with a gram-positive pathogen isolated at baseline.
(§1) The primary efficacy endpoint was the clinical response in the CE population at TOC, which occurred 20 to 28 days after study enrollment on Day 1. Clinical response was determined by the investigator as part of the end-of-therapy, TOC, and late follow-up procedures by assessing signs and symptoms including fever, pain, tenderness, erythema, induration, edema, purulent drainage, eschar, and devitalized tissue. A clinical response of cure, improvement, failure, or indeterminate was assigned at end-of-therapy and TOC by the investigator based on clinical signs and symptoms. At late follow-up, the investigator could assign the clinical response of relapse in addition to cure, improvement, or indeterminate. Only patients with a clinical response of cure or improvement at TOC were assessed for clinical response at late follow-up.
(§2) Cure was defined as resolution of purulent drainage, pain, edema, fever, erythema, tenderness, and induration. Serous drainage or aspirate and/or granulation tissue could be present. Improvement was defined as resolution of purulent drainage and, in the case of cellulitis, cessation of fever and pain. Residual erythema, edema, pain (in the case of wound or abscess), tenderness, and/or induration could be present as could serous drainage, granulation tissue, eschar, and/or devitalized tissue. Failure included any of the following: presence of purulent drainage (or aspirate) and/or fever; the unanticipated need for abscess drainage or removal of sutures (for treatment of infection)>48 hours after initiation of study therapy; or treatment with nonstudy systemic antibiotic having activity against gram-positive pathogen(s) for the primary infection site or use of topical antibiotics at the site of primary infection 24 hours or more after initiation of study medication therapy.
The primary efficacy endpoint was clinical response (either cure or improvement versus failure) at TOC in the CE population. The primary efficacy analyses were a comparison of the proportions of CE patients with a clinical response of cure (defined as investigator assessment of cure or improvement) in the daily dose group compared to, 1) the single dose group and 2) the infrequent dose group. Adjusted estimates for the differences in response rates and the corresponding confidence intervals (CI) were constructed using the Mantel-Haenszel method stratified by disease category.

[2] = test system: S. aureus (MSSA, MRSA, and VRSA); conditions: within 15 minutes to 2 hours against MSSA, McKay et al. 2009; cited from earlier work
Streptococcus pyogenes = experiment: Phase 2 cSSSI study: cure rate by baseline pathogen; type: in vivo; conditions: Streptococcus pyogenes at baseline
Procedure: as §1, §2
(§3) Blood and infection site cultures were obtained within three days of enrollment (often done at the time of enrollment). End-of-therapy, TOC, and late follow-up (or at early relapse) cultures were obtained from the infection site if clinically indicated. […] Specimens were cultured and pathogens were identified at each investigative site's certified laboratory. All isolated gram-positive pathogen(s) that were obtained from the infection site at baseline/randomization and up to and including the TOC time point were subcultured and sent to a central laboratory (Covance Clinical Laboratories, Indianapolis, Ind.) for confirmatory identification and susceptibility testing. In cases of discrepancy between the local and the central laboratory, central laboratory results were used.

Streptococcus agalactiae = experiment: as above; type: in vivo; conditions: Streptococcus agalactiae at baseline
Procedure: as §1, §2, §3

Staphylococcus aureus = experiment: as above; type: in vivo; conditions: S. aureus at baseline, TOC
Procedure: as §1, §2, §3

Enterococcus faecalis = experiment: as above; type: in vivo; conditions: Enterococcus faecalis at baseline
Procedure: as §1, §2, §3

[3] = Clinically evaluable, cellulitis
[4] = Clinically evaluable, major abscess
[5] = Clinically evaluable, Mantel-Haenszel stratified by disease
[6] = Intent to treat, Mantel-Haenszel stratified by disease
[7] = Microbiologically evaluable, Mantel-Haenszel stratified by disease
[8] = Modified intent-to-treat, Mantel-Haenszel stratified by disease

For CN[C@H](CC(C)C)C(=O)N[C@H]1C(=O)N[C@@H](CC(N)=O)C(=O)N[C@H]2C(=O)N[C@H]3C(=O)N[C@H](C(=O)N[C@H](C(=O)O)c4cc(O)cc(O)c4-c4cc3ccc4O)[C@H](O[C@H]3C[C@](C)(N)[C@@H](O)[C@H](C)O3)c3ccc(c(Cl)c3)Oc3cc2cc(c3O[C@@H]2O[C@H](CO)[C@@H](O)[C@H](O)[C@H]2O[C@H]2C[C@](C)(NCc3ccc(-c4ccc(Cl)cc4)cc3)[C@@H](O)[C@H](C)O2)Oc2ccc(cc2Cl)[C@H]1O [Oritavancin, N-(4-(4-chlorophenyl)benzyl)A82846B], the “Estimated Difference in cure rate 800 mg − 200 mg” value [1, 3] was 14.4%, the “Estimated Difference in cure rate 1200 mg − 200 mg” value [1, 3] was 29.2% and the “Cure (cure and improvement), % of patients” value ([1]; Clinically evaluable, cellulitis, 200 mg IV daily for 3 to 7 days) was 58.3%. For the same compound, the “Cure (cure and improvement), % of patients” value ([1]; Clinically evaluable, cellulitis, 800 mg IV Day 1 with optional 400 mg Day 5) was 72.7%, the “Cure (cure and improvement), % of patients” value ([1]; Clinically evaluable, cellulitis, single dose 1200 mg IV Day 1) was 87.5% and the “Estimated Difference in cure rate 800 mg − 200 mg” value [1, 4] was −4.8%. The “Estimated Difference in cure rate 1200 mg − 200 mg” value [1, 4] was −2.3%, the “Cure (cure and improvement), % of patients” value ([1]; Clinically evaluable, major abscess, 200 mg IV daily for 3 to 7 days) was 92.3% and the “Cure (cure and improvement), % of patients” value ([1]; Clinically evaluable, major abscess, 800 mg IV Day 1 with optional 400 mg Day 5) was 87.5%. The “Cure (cure and improvement), % of patients” value ([1]; Clinically evaluable, major abscess, single dose 1200 mg IV Day 1) was 90.0%, the “Estimated Difference in cure rate 800 mg − 200 mg” value ([1]; Clinically evaluable, wound) was 6.6% and the “Estimated Difference in cure rate 1200 mg − 200 mg” value ([1]; Clinically evaluable, wound) was 1.3%. For the same compound, the “Cure (cure and improvement), % of patients” value ([1]; Clinically evaluable, wound, 200 mg IV daily for 3 to 7 days) was 65.4%, the “Cure (cure and improvement), % of patients” value ([1]; Clinically evaluable, wound, 800 mg IV Day 1 with optional 400 mg Day 5) was 72.0% and the “Cure (cure and improvement), % of patients” value ([1]; Clinically evaluable, wound, single dose 1200 mg IV Day 1) was 66.7%. The “Estimated Difference in cure rate 800 mg − 200 mg” value [1, 5] was 5.2%, the “Estimated Difference in cure rate 1200 mg − 200 mg” value [1, 5] was 8.6% and the “Cure (cure and improvement), % of patients” value ([1]; Clinically evaluable, 200 mg IV daily for 3 to 7 days) was 72.4%. For the same compound, the “Cure (cure and improvement), % of patients” value ([1]; Clinically evaluable, 800 mg IV Day 1 with optional 400 mg Day 5) was 77.5%, the “Cure (cure and improvement), % of patients” value ([1]; Clinically evaluable, single dose 1200 mg IV Day 1) was 81.5% and the Cure rate ([1]; Clinically evaluable, infrequent dose group, 800 mg Day 1 plus optional 400 mg Day 5) was 77.1%. The Cure rate ([1]; Clinically evaluable, infrequent dose group, only 800 mg on Day 1) was 78.3%, the “Estimated Difference in cure rate 800 mg − 200 mg” value [1, 6] was 5.1% and the “Estimated Difference in cure rate 1200 mg − 200 mg” value [1, 6] was 8.7%. For the same compound, the “Cure (cure and improvement), % of patients” value ([1]; Intent to treat, 200 mg IV daily for 3 to 7 days) was 72.4%, the “Cure (cure and improvement), % of patients” value ([1]; Intent to treat, 800 mg IV Day 1 with optional 400 mg Day 5) was 78.2% and the “Cure (cure and improvement), % of patients” value ([1]; Intent to treat, single dose 1200 mg IV Day 1) was 81.8%. The “Estimated Difference in cure rate 800 mg − 200 mg” value [1, 7] was 11.0%, the “Estimated Difference in cure rate 1200 mg − 200 mg” value [1, 7] was 8.5% and the “Cure (cure and improvement), % of patients” value ([1]; Microbiologically evaluable, 200 mg IV daily for 3 to 7 days) was 69.1%. For the same compound, the “Cure (cure and improvement), % of patients” value ([1]; Microbiologically evaluable, 800 mg IV Day 1 with optional 400 mg Day 5) was 81.3%, the “Cure (cure and improvement), % of patients” value ([1]; Microbiologically evaluable, single dose 1200 mg IV Day 1) was 79.3% and the “Estimated Difference in cure rate 800 mg − 200 mg” value [1, 8] was 11.1%. For the same compound, the “Estimated Difference in cure rate 1200 mg − 200 mg” value [1, 8] was 10.1%, the “Cure (cure and improvement), % of patients” value ([1]; Modified intent-to-treat, 200 mg IV daily for 3 to 7 days) was 68.8% and the “Cure (cure and improvement), % of patients” value ([1]; Modified intent-to-treat, 800 mg IV Day 1 with optional 400 mg Day 5) was 80.6%. The “Cure (cure and improvement), % of patients” value ([1]; Modified intent-to-treat, single dose 1200 mg IV Day 1) was 80.3%, the “Patients with cellulitis who failed having unplanned surgical procedures or interventions” value ([1]; daily dose group (200 mg)) was 29% and the “Relapse in CE patients” value ([1]; daily dose group, late follow-up) was “no patients”. The “Patients with cellulitis who failed having unplanned surgical procedures or interventions” value ([1]; infrequent dose group (800 mg)) was 7%, the “Relapse rate in CE patients” value ([1]; infrequent dose group, late follow-up) was 3.7% and the “Patients with cellulitis who failed having unplanned surgical procedures or interventions” value ([1]; single dose group (1200 mg), n/total) was 0/9. For the same compound, the “Relapse rate in CE patients” value ([1]; single dose group, late follow-up) was 1.6%, the “Bactericidal activity, log reduction” value [2] was ≥ 3 log and the “% of patients cured (cure and improvement)” value (shortened to “% of patients cured”) (Streptococcus pyogenes; 200 mg daily dose) was 66.7%. The “% of patients cured” value (Streptococcus pyogenes; 800 mg infrequent dose) was 100%, the “% of patients cured” value (Streptococcus pyogenes; 1200 mg single dose) was 100% and the “% of patients cured” value (Streptococcus agalactiae; 200 mg daily dose) was 33.3%. For the same compound, the “% of patients cured” value (Streptococcus agalactiae; 800 mg infrequent dose) was 100%, the “% of patients cured” value (Streptococcus agalactiae; 1200 mg single dose) was 100% and the “% of patients cured” value (Staphylococcus aureus; 200 mg daily dose) was 67.4%. The “% of patients cured” value (Staphylococcus aureus; 800 mg infrequent dose) was 79.5%, the “% of patients cured” value (Staphylococcus aureus; 1200 mg single dose) was 78.9% and the “% of patients cured” value (Enterococcus faecalis; 200 mg daily dose) was 50.0%. The “% of patients cured” value (Enterococcus faecalis; 800 mg infrequent dose) was 100% and the “% of patients cured” value (Enterococcus faecalis; 1200 mg single dose) was 100%.

Source: US8420592B2, “Methods of treatment using single doses of oritavancin” (The Medicines Company, priority 2008, dated 2013)
